Patent US20240239801A1, “PYRIMIDO[5,4,D]PYRIMIDINE COMPOUNDS, COMPOSITIONS COMPRISING THEM AND USES THEREOF” (Université de Montréal, priority 2021, published 2024)

Assays:
[1] = tested on: RAS-mutant cancer cell lines pERK; assay: Phospho-ERK inhibition in a panel of cancer cell lines (AlphaLISA); format: cell-based, human
Experimental: All cancer cell lines (A375, A101D, A2058, RKO, HT29 SK-MEL 30, IPC298, HepG2, HCT-116, Lovo, SW620, SW480, NCI-H358, NCI-H2122, Calu-6, NCIH2087, NCIH1755, NCIH1666 and Mewo) were obtained from ATCC and cultured in RPMI-1640 medium (Gibco) supplemented with 5% heat inactivated fetal bovine serum (FBS, Wisent) at 37° C. under 5% CO2. Cells were maintained in T175 flasks (Greiner). They were passaged by removing the culture medium, washing once in 10 mL of room temperature Phosphate Buffered Saline (PBS; Wisent) and incubating at 37° C. with 2 mL of 0.05% Trypsin (Thermo-Fisher). […]
After treatment, media was removed, and cells were lysed in 50 μL of 1× AlphaScreen Ultra Lysis Buffer (Perkin Elmer). […] After completion of the reactions, the signals were recorded on an EnVision plate reader (Perkin Elmer) using built in AlphaLISA® settings.
The effect of each compound dilution on the pERK signal was expressed in % inhibition and calculated as follows. […]
The ability of each compound to inhibit pERK signal was expressed as an IC50 value obtained by plotting the inhibition values for each data point of a dilution series and fitting the obtained curves using a log(agonist) versus response−variable slope (four parameters) function using GraphPadPrism (V7.0). […]

[2] = tested on: RAS-mutant HCT-116 cells pERK/pMEK; assay: Immunoblot analysis of pERK and pMEK; format: cell-based, human; settings: FIG. 2, 1 h treatment
Experimental: For immunoblotting analysis, 500,000 HCT-116 cells were plated in 1 mL of complete RPMI-1640 growth medium in 24-well flat-bottomed transparent dishes (Costar). Cells were maintained overnight at 37° C. under 5% CO2 before treatment with compounds' dilution series for one hour. Cells were then washed once in PBS and lized in 250 μL of Igepal Lysis Buffer (50 mM Tris-HCl pH 7.5, 150 mM NaCl, 1% Igepal-CA630, 1 mM EDTA, 10% Glycerol) supplemented with Leupeptin, Aprotinin, PMSF, phosphatase inhibitor cocktail (Sigma) and Na3VO4 at 4° C. for 15 minutes with gentle rocking. Cell extracts were then cleared by centrifugation at 20,000 g at 4° C. for 10 minutes. Cleared lysates were then transferred on ice in fresh tubes and then boiled in sample loading buffer (100 mM Tris-HCl pH 6.8, 4% SDS, 0.2% bromophenol blue, 20% glycerol, 200 mM β-mercaptoethanol) for 5 minutes prior to fractionation by SDS-PAGE and transfer to nitrocellulose membranes (PALL). […]

SMILES | paradoxical induction of the pathway (pERK) ([1]; RAS-mutant cell lines of Table D) | YMIN of pERK IC50 curves ([1]; in 11 of the 13 RAS-mutant cell lines tested) [%] | paradoxical induction of pERK or pMEK signaling (immunoblot) [2]
Cc1ccc2c(Nc3cccc(Cl)c3F)nccc2c1NC(=O)c1csc2c(N)ncnc12 [Belvarafenib, reference compound] | mild to strong induction of the pathway | < −30 | –
Nc1cccc2c1ncn2-c1ncc2ncnc(Nc3c(F)ccc(NS(=O)(=O)c4cccc(Cl)c4Cl)c3F)c2n1 [Example 80] | – | – | does not induce paradoxical induction of pERK or pMEK signaling
